Measurements: ChEMBL document CHEMBL1137918, “Synthesis and antiproliferative activity of 2-aryl-4-oxo-thiazolidin-3-yl-amides for prostate cancer” (Bioorg Med Chem Lett, 2004)

What was measured:
Format in all cases: functional, cell-based
[1] = Antiproliferative activity was evaluated against human prostate PPC-1 cancer cell lines using the sulforhodamine B ([…]) assay
[2] = test system: LNCaP; assay: Antiproliferative activity was evaluated against human prostate LNCaP cancer cell lines using the sulforhodamine B ([…]) assay
[3] = test system: PC-3; assay: Antiproliferative activity was evaluated against human prostate PC-3 cancer cell lines using the sulforhodamine B ([…]) assay
[4] = Antiproliferative activity was evaluated against human prostate TSU cancer cell lines using the sulforhodamine B ([…]) assay
[5] = test system: DU-145; assay: Antiproliferative activity was evaluated against human prostate DU-145 cancer cell lines using the sulforhodamine B ([…]) assay

| IC50 [2] | IC50 [3] | IC50 [5] | SMILES | IC50 [1] | IC50 [4] |
| --- | --- | --- | --- | --- | --- |
| > 20 µM | > 20 µM | 15.8 µM | CCCCCCCCCCCCCCCCCCNCCN1CCSC1c1ccccc1 (centres undefined) | 12 µM | 6.1 µM |
| > 100 µM | > 100 µM |  | COc1ccc(CCNC(=O)CN2C(=O)CSC2c2ccccc2)cc1OC (centres undefined) | > 100 µM | > 100 µM |
